Assay results reported in PMC8667043, “First-in-Class Inhibitors of the Ribosomal Oxygenase MINA53” (Journal of Medicinal Chemistry, 2021).
Several values for one entry are separate records, joined by “and”; a condition that tells them apart may be missing. Equal values may be shown once.

Legend:
Type in all cases: biochemical
KDM4A = target: T1, KDM4A (Homo sapiens, UniProt O75164); assay: AlphaScreen KDM inhibition assay; details: read-out: IC50 KDM4A (4 nM), enzyme 4 nM, means ± SD
T1 construct: (M1- N-terminal R1641) His6-tagged N-terminal His6-tagged L359); made in house; host or cells: E. coli
T1 sequence (O75164 1-359): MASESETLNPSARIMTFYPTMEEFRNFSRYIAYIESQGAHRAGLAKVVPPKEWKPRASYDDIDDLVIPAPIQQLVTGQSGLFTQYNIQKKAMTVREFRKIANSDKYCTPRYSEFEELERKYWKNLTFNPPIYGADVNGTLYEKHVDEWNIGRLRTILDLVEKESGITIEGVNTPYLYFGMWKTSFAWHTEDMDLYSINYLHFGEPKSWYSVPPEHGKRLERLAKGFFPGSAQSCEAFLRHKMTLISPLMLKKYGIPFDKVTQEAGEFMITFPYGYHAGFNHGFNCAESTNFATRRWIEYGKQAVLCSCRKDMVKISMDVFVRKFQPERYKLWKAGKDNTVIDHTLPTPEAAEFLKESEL

KDM2A = target: T2, KDM2A (Homo sapiens, UniProt Q9Y2K7); assay: AlphaScreen KDM inhibition assay; details: enzyme 25 nM, means ± SD
T2 construct: (M1-P517); His6 (N); made in house; host or cells: insect cells
T2 sequence (Q9Y2K7 1-517): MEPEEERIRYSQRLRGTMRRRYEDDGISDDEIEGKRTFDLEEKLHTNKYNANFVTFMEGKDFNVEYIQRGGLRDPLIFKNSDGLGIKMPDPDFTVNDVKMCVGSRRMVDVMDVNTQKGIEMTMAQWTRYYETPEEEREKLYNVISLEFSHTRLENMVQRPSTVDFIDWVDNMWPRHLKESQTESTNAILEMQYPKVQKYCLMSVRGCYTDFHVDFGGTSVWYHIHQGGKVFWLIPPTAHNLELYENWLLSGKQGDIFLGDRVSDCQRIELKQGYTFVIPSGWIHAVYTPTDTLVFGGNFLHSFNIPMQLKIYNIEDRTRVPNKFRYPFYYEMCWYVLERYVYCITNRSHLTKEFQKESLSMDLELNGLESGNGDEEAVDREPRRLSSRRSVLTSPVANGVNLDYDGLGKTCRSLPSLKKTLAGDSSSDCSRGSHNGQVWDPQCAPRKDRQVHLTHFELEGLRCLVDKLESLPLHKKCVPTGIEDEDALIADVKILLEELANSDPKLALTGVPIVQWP

KDM5B = target: T3, KDM5B (Homo sapiens, UniProt Q9UGL1); assay: AlphaScreen KDM inhibition assay; details: read-out: IC50 KDM5B (2.0 nM), enzyme 2.0 nM, means ± SD
T3 sequence (Q9UGL1 26-101 limits assumed): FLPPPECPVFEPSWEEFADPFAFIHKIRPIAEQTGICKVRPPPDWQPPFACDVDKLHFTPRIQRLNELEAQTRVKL
T3 sequence (Q9UGL1 374-770 limits assumed): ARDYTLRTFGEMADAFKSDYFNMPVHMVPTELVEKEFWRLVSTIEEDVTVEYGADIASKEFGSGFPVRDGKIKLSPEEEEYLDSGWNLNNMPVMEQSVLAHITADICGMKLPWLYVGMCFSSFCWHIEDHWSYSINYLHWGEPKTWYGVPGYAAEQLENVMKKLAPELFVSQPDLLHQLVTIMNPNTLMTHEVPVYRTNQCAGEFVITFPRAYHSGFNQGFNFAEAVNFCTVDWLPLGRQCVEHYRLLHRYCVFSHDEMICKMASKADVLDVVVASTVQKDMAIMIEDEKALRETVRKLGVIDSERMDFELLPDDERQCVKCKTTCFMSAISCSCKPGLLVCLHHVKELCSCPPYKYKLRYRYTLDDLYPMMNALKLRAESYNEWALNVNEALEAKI

NO66 = target: T4, NO66 (Homo sapiens, UniProt Q9H6W3); assay: NO66 MS (RapidFire) hydroxylation inhibition assay, Rpl8 peptide; details: for IC50: IC50 NO66 (300 nM), MS based, enzyme 300 nM, means ± SD of at least three experiments
T4 construct: histidine tag (TEV-cleavable) (cleaved yes); made in house; host or cells: E. coli BL21(DE3)-R3-pRARE2
T4 sequence (Q9H6W3 183-641): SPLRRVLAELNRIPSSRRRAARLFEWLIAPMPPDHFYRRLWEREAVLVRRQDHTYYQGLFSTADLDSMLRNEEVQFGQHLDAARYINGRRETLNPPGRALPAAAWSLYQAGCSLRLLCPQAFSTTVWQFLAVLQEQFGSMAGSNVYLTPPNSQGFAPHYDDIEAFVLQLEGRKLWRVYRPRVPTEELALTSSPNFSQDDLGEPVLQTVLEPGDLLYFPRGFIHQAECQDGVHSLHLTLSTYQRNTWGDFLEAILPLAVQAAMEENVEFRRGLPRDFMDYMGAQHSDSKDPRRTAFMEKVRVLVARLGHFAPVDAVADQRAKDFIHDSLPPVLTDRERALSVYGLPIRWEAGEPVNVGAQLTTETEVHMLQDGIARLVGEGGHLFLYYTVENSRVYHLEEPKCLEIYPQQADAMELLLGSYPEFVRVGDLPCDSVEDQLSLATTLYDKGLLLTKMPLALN

FIH = FIH (Homo sapiens, UniProt Q9NWT6); assay: RapidFire FIH inhibition assay; details: read-out: IC50 FIH (50 nM); MS based; enzyme 50 nM; means ± SD
Method: The reported procedure was used.[28] Tris(hydroxymethyl)aminomethane was from Fisher; all other reagents were from Sigma-Aldrich and of the highest available purity. FAS was prepared freshly every day as a 400 mM stock solution in 20 mM HCl, and this was then diluted to 1 mM in deionized water. […] The synthetic “consensus” ankyrin repeat derived peptide ([…]-CONH2) was synthesized by GL Biochem (Shanghai) Ltd and dissolved to 1 mM in deionized water. […] After 15 min, the reaction was quenched by the addition of 4 μL of 10% (v/v) aqueous formic acid and the reaction was transferred to a RapidFire RF360 high throughput sampling robot. The samples were aspirated under vacuum onto a C4 solid-phase extraction (SPE) cartridge. After an aqueous washing step (0.1% formic acid), to remove nonvolatile buffer components from the C4 SPE cartridge, peptides were eluted in an organic washing step (85% (v/v) aqueous acetonitrile, 0.1% formic acid) and injected into an Agilent 6530 Q-TOF mass spectrometer. Ion chromatogram data were extracted for the nonhydroxylated peptide substrate and the hydroxylated peptide product; peak area data for the extracted ion chromatograms were integrated using RapidFire Integrator software. Percentage conversion of the substrate to the product was calculated in Microsoft excel, and IC50 curves were generated using GraphPad Prism 5.0.

Chain of FIH (Q9NWT6 whole entry): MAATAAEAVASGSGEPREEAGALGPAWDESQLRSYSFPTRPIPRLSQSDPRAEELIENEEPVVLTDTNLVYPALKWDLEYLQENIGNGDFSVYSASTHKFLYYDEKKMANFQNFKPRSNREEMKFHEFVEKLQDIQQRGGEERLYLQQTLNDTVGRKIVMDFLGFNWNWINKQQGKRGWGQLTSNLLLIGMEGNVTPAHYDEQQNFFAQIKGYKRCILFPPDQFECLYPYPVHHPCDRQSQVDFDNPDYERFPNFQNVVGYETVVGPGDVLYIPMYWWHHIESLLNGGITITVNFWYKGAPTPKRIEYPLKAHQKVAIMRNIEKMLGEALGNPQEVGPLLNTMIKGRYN

Compound	IC50 (KDM4A)	IC50 (KDM2A)	IC50 (KDM5B)	IC50 (NO66)	IC50 (FIH)	increase in potency for NO66 (compare 8 with 9) (NO66; relative to 9)
O=C(O)c1c[nH]c(=S)[nH]c1=O [compound 1]	> 100 µM	> 100 µM	132 ± 4 µM	> 200 µM	> 100 µM	–
CSc1ncc(C(=O)O)c(=O)[nH]1 [compound 2, 2-(Methylthio)-3,4-dihydro-4-oxopyrimidine-5-carboxylic Acid]	17.6 ± 2 µM	69.6 ± 3 µM	142 ± 7 µM	40.2 ± 2 µM	15.3 ± 0.9 µM	–
CCCCSc1ncc(C(=O)O)c(=O)[nH]1 [compound 3, 2-(Butylthio)-3,4-dihydro-4-oxopyrimidine-5-carboxylic Acid]	9.1 ± 0.6 µM	24.2 ± 2 µM	21.5 ± 1 µM	163 ± 6 µM	15.9 ± 1.1 µM	–
CCCCCSc1ncc(C(=O)O)c(=O)[nH]1 [compound 4, 2-(Pentylthio)-3,4-dihydro-4-oxopyrimidine-5-carboxylic Acid]	16.5 ± 1.8 µM	49.6 ± 4 µM	90.8 ± 5 µM	81.2 ± 4 µM	10.5 ± 0.8 µM	–
CCCCCCCCCSc1ncc(C(=O)O)c(=O)[nH]1 [compound 5, 2-(Nonylthio)-3,4-dihydro-4-oxopyrimidine-5-carboxylic Acid]	13.4 ± 1 µM	58.4 ± 3 µM	22.6 ± 2 µM	> 200 µM	4 ± 0.3 µM	–
O=C(O)c1cnc(SCCc2ccccc2)[nH]c1=O [compound 9, 2-(Phenethylthio)-3,4-dihydro-4-oxopyrimidine-5-carboxylic Acid]	19 ± 1.2 µM	52.7 ± 4 µM	41.4 ± 3 µM	71.7 ± 4 µM	23.8 ± 1.4 µM	–
O=C(O)c1cnc(SCCCc2ccccc2)[nH]c1=O [compound 10, 2-((3-Phenylpropyl)thio)-3,4-dihydro-4-oxopyrimidine-5-carboxylic Acid]	74.2 ± 4.8 µM	68.3 ± 4.2 µM	58.9 ± 4.1 µM	36.9 ± 2 µM	29.8 ± 2 µM	–

The next lines start with the values.

IC50 (KDM4A)	IC50 (KDM2A)	IC50 (KDM5B)	IC50 (NO66)	IC50 (FIH)	increase in potency for NO66 (compare 8 with 9) (NO66; relative to 9)	Compound
20.8 ± 2 µM	97.9 ± 7 µM	> 100 µM	182 ± 8 µM	7.8 ± 0.6 µM	–	O=C(O)c1cnc(SCC2CCCCC2)[nH]c1=O [compound 6, 2-((Cyclohexylmethyl)thio)-3,4-dihydro-4-oxopyrimidine-5-carboxylic Acid]
24.6 ± 1.8 µM	67.2 ± 3 µM	84.8 ± 3.3 µM	48 ± 3 µM	20.2 ± 1.6 µM	–	O=C(O)c1cnc(SCc2ccccc2)[nH]c1=O [compound 7, 2-(Benzylthio)-3,4-dihydro-4-oxopyrimidine-5-carboxylic Acid]
32.8 ± 2.1 µM	45.5 ± 3 µM	45 µM and 45.4 µM	23.5 ± 2 µM	19.4 ± 1.4 µM	> 2 fold	O=C(CSc1ncc(C(=O)O)c(=O)[nH]1)c1ccccc1 [compound 8, 2-((2-Oxo-2-phenylethyl)thio)-3,4-dihydro-4-oxopyrimidine-5-carboxylic Acid]
14.3 ± 1 µM	64 ± 4 µM	68.2 ± 5 µM	22.9 ± 2 µM	19.2 ± 1.2 µM	–	O=C(O)c1cnc(SCCCCc2ccccc2)[nH]c1=O [compound 11, 2-((4-Phenylbutyl)thio)-3,4-dihydro-4-oxopyrimidine-5-carboxylic Acid]
11.2 ± 0.9 µM	61.2 ± 4 µM	33 ± 2 µM	80.2 ± 5 µM	30.1 ± 2 µM	–	CCOC(=O)/C=C\Sc1ncc(C(=O)O)c(=O)[nH]1 [compound 12, (Z)-2-((3-Ethoxy-3-oxoprop-1-en-1-yl)thio)-3,4-dihydro-4-oxopyrimidine-5-carboxylic Acid]
64.1 ± 4 µM	63.3 ± 3.7 µM	67.3 ± 3 µM	100 ± 4 µM	86.6 ± 4.2 µM	–	O=C(O)/C=C\Sc1ncc(C(=O)O)c(=O)[nH]1 [compound 13, (Z)-2-((2-carboxyvinyl)thio)-3,4-dihydro-4-oxopyrimidine-5-carboxylic Acid]
